Source: patent US11913882B2, “Determination of the supramolecular organization of encapsulated molecules by luminescence lifetime analysis” (SCUOLA NORMALE SUPERIORE, priority 2020, dated 2024)

Assay: Fluorescence lifetime analysis (phasor-FLIM) of DOX organization states and Doxoves®
Assay type: physicochemical
Description: The procedure was applied to Doxoves® as follows: • 1) Based on previous knowledge, at least three different supramolecular organizations of DOX molecules are supposed to contribute to the overall nature of Doxoves® nanocarriers: crystallized DOX, free DOX, and DOX eventually associated with the nanocarrier surface, i.e. with lipids. These three forms are defined here as standards. • 2) The three standards identified at step 1 are obtained and measured. As a preliminary step, each standard is produced and dissolved in a buffer that is the same as that of the test substance. In the present case, manufacturer's indications were followed to produce the correct buffer composition. In general, substances having an impact on lifetime analysis of the test substance, e.g. Doxoves®, shall be also present in the standard substances. First, the phasor signature of crystalized DOX and free-in-solution DOX are measured: two mono-exponential lifetimes are obtained: 0.2 ns for the crystal and 1 ns for free DOX, respectively. […] Then, by spin-coating simil-Doxoves® nanoparticles on a glass surface. This procedure destroys mechanically the liposomal particles and recovers the liposomal membranes on the glass. […] It is important to note that lifetime measuring conditions, e.g. temperature, pH etc., shall be the same for measures on the test substance and measures on the standard substances. • 5) Doxoves® lifetime data are analysed by the phasor approach. In more detail, the phasor is calculated by using a dedicated routine in the SimFCS software (Laboratory for Fluorescence Dynamics, University of California, Irvine). […] Simple algebraic rules are adopted to extract quantitatively the relative contribution (fractional intensity) of each standard (by a dedicated routine in SimFCS software). • It may still be under question whether there may be more than three organization states, e.g. four defining a trapezoidal shape within the universal circle and circumscribing the location of the test substance lifetime decay within the universal circle. A final control experiment was thus performed to corroborate the hypothesis that only three standard components (and NOT more than three) contribute to the overall organization of encapsulated DOX. In brief, the lifetime of simil-Doxoves® in solution is measured. If only three components contribute to Doxoves® organization, simil-Doxoves® is expected to be a linear combination of just free DOX and DOX associated to nanocarrier lipids, thus lying along the segment that connects these two states.

[1] = within tested nanoparticles, FIG. 4, phasor plot triangle

For `COc1cccc2c1C(=O)c1c(O)c3c(c(O)c1C2=O)C[C@@](O)(C(=O)CO)C[C@@H]3O[C@H]1C[C@H](N)[C@H](O)[C@H](C)O1` [DOX, doxorubicin], the “fluorescence lifetime of free DOX in solution, mono-exponential” value (pure standard, free in water/buffer, phasor approach) was 1 ns, the “fluorescence lifetime of crystalized DOX (purified rod-shaped crystals), mono-exponential” value (pure standard, excitation 470 nm, emission 500-650 nm, phasor approach) was 0.2 ns and the “fractional intensity of DOX conjugate with the lipids” value [1] was 46%. The “fractional intensity of DOX organized into nanorod crystals” value [1] was 36% and the “fractional intensity of free DOX” value [1] was 18%.
